From ChEMBL document CHEMBL3351909, “In vitro and in vivo characterization of a benzofuran derivative, a potential anticancer agent, as a novel Aurora B kinase inhibitor” (Eur J Med Chem, 2015)

Tests used:
Aurora kinase B [1] = target: T1, Aurora kinase B (Homo sapiens, UniProt Q96GD4); test: Inhibition of recombinant AURKB (unknown origin) after 60 mins by z'-lyte kinase assay
Aurora kinase A [2] = target: T2, Aurora kinase A (Homo sapiens, UniProt O14965); test: Inhibition of recombinant AURKA (unknown origin) after 60 mins by z'-lyte kinase assay
T2 sequence (O14965 whole entry): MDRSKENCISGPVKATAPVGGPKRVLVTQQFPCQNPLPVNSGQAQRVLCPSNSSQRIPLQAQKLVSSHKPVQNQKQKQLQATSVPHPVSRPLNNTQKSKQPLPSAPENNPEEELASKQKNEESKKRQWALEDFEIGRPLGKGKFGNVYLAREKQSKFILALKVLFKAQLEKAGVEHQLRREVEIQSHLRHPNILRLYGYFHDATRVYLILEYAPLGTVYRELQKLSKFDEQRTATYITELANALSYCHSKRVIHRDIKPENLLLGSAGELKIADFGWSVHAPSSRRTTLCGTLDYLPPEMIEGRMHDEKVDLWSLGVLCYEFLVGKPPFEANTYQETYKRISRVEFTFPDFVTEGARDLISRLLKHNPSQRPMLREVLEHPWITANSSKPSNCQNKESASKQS

[3] = target: Glycogen synthase kinase-3 beta (Homo sapiens, UniProt P49841); test: Inhibition of recombinant GSK-3 beta (unknown origin) after 60 mins by z'-lyte kinase assay
Chain of Glycogen synthase kinase-3 beta (P49841 whole entry): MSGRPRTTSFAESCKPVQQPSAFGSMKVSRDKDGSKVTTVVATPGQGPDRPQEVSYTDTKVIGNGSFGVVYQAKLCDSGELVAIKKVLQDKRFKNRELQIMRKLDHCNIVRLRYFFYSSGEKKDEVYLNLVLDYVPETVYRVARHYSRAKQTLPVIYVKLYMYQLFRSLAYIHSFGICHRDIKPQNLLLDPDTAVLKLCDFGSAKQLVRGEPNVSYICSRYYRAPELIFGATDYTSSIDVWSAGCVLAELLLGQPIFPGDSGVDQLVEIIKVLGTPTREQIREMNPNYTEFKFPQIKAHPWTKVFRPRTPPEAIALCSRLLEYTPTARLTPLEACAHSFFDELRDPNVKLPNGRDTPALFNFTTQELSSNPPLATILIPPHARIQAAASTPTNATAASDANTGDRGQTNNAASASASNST

[4] = target: Vascular endothelial growth factor receptor 1 (Homo sapiens, UniProt P17948); test: Inhibition of recombinant FLT1 (unknown origin) after 60 mins by z'-lyte kinase assay
[5] = target: Platelet-derived growth factor receptor alpha (Homo sapiens, UniProt P16234); test: Inhibition of recombinant PDGFR alpha (unknown origin) after 60 mins by z'-lyte kinase assay
Chain of Platelet-derived growth factor receptor alpha (P16234 whole entry): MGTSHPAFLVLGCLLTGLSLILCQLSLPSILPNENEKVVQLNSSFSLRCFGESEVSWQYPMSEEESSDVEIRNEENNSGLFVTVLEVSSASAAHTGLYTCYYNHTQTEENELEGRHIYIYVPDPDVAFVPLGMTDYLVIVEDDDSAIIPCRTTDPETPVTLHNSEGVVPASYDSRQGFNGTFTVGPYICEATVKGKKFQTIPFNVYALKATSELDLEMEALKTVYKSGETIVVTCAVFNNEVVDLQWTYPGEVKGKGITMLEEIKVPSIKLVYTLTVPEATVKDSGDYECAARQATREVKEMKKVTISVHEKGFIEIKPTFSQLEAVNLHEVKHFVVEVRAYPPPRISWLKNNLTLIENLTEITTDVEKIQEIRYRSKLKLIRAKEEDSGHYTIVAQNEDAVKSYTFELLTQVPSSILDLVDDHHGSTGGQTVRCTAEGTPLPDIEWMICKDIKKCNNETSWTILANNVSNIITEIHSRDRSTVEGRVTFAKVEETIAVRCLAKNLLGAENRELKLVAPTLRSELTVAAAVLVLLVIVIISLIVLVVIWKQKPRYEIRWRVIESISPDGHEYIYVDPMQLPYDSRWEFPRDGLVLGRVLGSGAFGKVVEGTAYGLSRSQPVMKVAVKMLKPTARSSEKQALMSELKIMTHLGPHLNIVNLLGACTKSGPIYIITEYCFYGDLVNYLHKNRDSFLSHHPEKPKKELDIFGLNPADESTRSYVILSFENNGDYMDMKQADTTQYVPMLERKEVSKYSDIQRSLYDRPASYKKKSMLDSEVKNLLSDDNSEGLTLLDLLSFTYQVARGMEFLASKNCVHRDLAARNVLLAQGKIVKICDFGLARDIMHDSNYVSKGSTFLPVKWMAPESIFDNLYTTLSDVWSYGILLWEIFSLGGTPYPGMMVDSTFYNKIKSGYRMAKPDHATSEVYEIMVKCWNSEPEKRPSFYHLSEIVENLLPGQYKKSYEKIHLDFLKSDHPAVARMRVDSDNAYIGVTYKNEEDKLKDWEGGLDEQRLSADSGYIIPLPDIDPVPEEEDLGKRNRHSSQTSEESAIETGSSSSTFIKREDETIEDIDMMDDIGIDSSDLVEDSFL

Aurora kinase C = Aurora kinase C (Homo sapiens, UniProt Q9UQB9); test: Inhibition of recombinant AURKC (unknown origin) after 60 mins by z'-lyte kinase assay
[6] = target: Vascular endothelial growth factor receptor 3 (Homo sapiens, UniProt P35916); test: Inhibition of recombinant FLT4 (unknown origin) after 60 mins by z'-lyte kinase assay
Chain of Vascular endothelial growth factor receptor 3 (P35916 whole entry): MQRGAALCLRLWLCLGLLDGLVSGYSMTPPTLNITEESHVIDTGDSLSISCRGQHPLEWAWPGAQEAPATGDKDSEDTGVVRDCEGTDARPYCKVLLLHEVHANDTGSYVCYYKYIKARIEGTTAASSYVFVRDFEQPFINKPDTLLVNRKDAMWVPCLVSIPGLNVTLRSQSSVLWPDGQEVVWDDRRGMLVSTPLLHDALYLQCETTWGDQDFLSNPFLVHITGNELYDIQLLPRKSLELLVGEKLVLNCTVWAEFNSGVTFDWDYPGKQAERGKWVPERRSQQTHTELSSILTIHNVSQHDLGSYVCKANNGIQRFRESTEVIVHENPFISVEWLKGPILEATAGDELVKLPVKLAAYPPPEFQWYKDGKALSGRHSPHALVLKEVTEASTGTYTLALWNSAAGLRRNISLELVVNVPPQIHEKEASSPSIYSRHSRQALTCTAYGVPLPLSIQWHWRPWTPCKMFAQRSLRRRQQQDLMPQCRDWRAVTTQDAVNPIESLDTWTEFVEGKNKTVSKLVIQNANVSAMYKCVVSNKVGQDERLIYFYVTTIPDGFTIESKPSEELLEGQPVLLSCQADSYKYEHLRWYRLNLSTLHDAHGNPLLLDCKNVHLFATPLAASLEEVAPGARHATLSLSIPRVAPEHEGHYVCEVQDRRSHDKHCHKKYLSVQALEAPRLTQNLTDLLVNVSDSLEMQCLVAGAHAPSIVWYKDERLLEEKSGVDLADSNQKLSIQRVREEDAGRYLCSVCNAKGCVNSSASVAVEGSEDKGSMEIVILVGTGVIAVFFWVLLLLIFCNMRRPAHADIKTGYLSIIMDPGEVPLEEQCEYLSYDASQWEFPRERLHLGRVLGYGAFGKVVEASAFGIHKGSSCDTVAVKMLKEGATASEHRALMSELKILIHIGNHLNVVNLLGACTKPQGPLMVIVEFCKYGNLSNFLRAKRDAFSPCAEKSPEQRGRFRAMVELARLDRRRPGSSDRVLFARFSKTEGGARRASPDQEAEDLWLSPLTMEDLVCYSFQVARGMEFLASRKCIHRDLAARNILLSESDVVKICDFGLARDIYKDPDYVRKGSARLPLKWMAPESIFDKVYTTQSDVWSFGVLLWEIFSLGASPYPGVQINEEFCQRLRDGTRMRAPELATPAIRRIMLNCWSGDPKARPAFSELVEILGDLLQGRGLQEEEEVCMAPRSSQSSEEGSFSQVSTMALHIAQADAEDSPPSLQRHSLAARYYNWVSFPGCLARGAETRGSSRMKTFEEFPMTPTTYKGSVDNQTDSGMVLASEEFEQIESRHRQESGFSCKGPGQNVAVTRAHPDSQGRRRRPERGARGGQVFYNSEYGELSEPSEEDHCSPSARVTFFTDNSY

[7] = target: Vascular endothelial growth factor receptor 2 (Homo sapiens, UniProt P35968); test: Inhibition of recombinant KDR (unknown origin) after 60 mins by z'-lyte kinase assay
[8] = target: Serine/threonine-protein kinase Nek1 (Homo sapiens, UniProt Q96PY6); test: Inhibition of recombinant NEK1 (unknown origin) after 60 mins by z'-lyte kinase assay
[9] = target: AMP-activated protein kinase, AMPK; test: Inhibition of recombinant AMPK A1/B1/G1 (unknown origin) after 60 mins by z'-lyte kinase assay; assay type: protein-complex assay, Homo sapiens
[10] = target: Protein kinase C alpha type (Homo sapiens, UniProt P17252); test: Inhibition of recombinant PKC alpha (unknown origin) after 60 mins by z'-lyte kinase assay
[11] = target: Cyclin-dependent kinase 1/cyclin B1 (Homo sapiens, UniProt P06493); test: Inhibition of recombinant CDK1/cyclin B (unknown origin) after 60 mins by z'-lyte kinase assay; assay type: protein-complex assay
Chain of Cyclin-dependent kinase 1/cyclin B1 (P06493 whole entry): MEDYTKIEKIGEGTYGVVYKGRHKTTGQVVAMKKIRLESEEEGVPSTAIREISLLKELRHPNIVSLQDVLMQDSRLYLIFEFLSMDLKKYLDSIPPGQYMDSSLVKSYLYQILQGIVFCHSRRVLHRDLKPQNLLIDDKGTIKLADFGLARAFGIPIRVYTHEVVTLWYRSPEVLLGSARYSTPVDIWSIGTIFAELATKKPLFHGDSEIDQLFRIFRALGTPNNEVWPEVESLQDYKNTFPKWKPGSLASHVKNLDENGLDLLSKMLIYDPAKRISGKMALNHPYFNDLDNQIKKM
Chain of Cyclin-dependent kinase 1/cyclin B1 (P14635 whole entry, further chain): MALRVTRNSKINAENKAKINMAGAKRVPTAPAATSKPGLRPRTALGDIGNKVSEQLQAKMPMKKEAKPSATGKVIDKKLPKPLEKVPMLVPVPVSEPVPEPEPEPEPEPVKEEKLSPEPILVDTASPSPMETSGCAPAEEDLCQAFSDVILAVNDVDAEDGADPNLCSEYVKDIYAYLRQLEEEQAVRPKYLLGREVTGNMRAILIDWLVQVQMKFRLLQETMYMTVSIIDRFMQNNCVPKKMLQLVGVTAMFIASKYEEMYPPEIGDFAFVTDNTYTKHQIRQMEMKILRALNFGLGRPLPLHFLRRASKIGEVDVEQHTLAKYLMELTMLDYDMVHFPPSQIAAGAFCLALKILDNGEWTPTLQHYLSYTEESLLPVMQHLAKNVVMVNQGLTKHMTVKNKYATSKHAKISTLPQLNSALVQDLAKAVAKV

[12] = target: RAC-alpha serine/threonine-protein kinase (Homo sapiens, UniProt P31749); test: Inhibition of recombinant AKT1 (unknown origin) after 60 mins by z'-lyte kinase assay
Chain of RAC-alpha serine/threonine-protein kinase (P31749 whole entry, canonical isoform): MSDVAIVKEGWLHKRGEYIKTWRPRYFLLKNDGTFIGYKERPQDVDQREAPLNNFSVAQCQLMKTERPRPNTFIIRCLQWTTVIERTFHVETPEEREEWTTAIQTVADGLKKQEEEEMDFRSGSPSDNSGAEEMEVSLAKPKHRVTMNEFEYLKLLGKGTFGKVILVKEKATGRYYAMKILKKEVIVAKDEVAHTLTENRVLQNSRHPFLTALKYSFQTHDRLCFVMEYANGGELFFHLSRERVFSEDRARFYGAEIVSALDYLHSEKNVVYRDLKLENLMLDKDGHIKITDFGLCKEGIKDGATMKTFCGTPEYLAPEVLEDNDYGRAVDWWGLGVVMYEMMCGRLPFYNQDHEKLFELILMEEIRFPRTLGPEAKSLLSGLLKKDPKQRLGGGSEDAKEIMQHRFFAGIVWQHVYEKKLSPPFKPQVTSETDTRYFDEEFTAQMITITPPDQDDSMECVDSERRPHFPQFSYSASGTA

[13] = target: Casein kinase I isoform alpha (Homo sapiens, UniProt P48729); test: Inhibition of recombinant CK1 alpha1 (unknown origin) after 60 mins by z'-lyte kinase assay
[14] = target: Mitogen-activated protein kinase 1 (Homo sapiens, UniProt P28482); test: Inhibition of recombinant MAPK1 (unknown origin) after 60 mins by z'-lyte kinase assay
Aurora kinase A [15] = target: T2, Aurora kinase A; test: Binding affinity to AURKA (unknown origin)
Aurora kinase B [16] = target: T1, Aurora kinase B; test: Binding affinity to AURKB (unknown origin)
SW-620 = test: Cytotoxicity against human SW620 cells after 96 hrs by CCK-8 assay; assay type: functional, cell-based; settings: SW-620, 96 h
HepG2 = test: Cytotoxicity against human HepG2 cells after 96 hrs by CCK-8 assay; assay type: functional, cell-based; settings: HepG2, 96 h
HeLa = test: Cytotoxicity against human HeLa cells after 96 hrs by CCK-8 assay; assay type: functional, cell-based
[17] = Cytotoxicity against human HCT116 cells after 96 hrs by CCK-8 assay; assay type: functional, cell-based; settings: HCT-116, 96 h
MCF7 = test: Cytotoxicity against human MCF7 cells after 96 hrs by CCK-8 assay; assay type: functional, cell-based; settings: MCF7, 96 h
[18] = Cytotoxicity against human QGY7401 cells after 96 hrs by CCK-8 assay; assay type: functional, cell-based
SMMC-7721 = test: Cytotoxicity against human SMMC7721 cells after 96 hrs by CCK-8 assay; assay type: functional, cell-based; settings: SMMC-7721, 96 h
[19] = Cytotoxicity against human SPC-A1 cells after 96 hrs by CCK-8 assay; assay type: functional, cell-based; settings: SPCA1, 96 h
[20] = Cytotoxicity against human FOCUS cells after 96 hrs by CCK-8 assay; assay type: functional, cell-based
[21] = Cytotoxicity against human HuH7 cells after 96 hrs by CCK-8 assay; assay type: functional, cell-based; settings: Huh-7, 96 h
[22] = Cytotoxicity against human SKOV3 cells after 96 hrs by CCK-8 assay; assay type: functional, cell-based; settings: SK-OV-3, 96 h
[23] = Cytotoxicity against human Hep3B cells after 96 hrs by CCK-8 assay; assay type: functional, cell-based, Hep 3B2
HT-29 = test: Cytotoxicity against human HT-29 cells after 96 hrs by CCK-8 assay; assay type: functional, cell-based; settings: HT-29, 96 h
[24] = Cytotoxicity against human PANC1 cells after 96 hrs by CCK-8 assay; assay type: functional, cell-based; settings: PANC-1, 96 h
[25] = Cytotoxicity against human SKHEP1 cells after 96 hrs by CCK-8 assay; assay type: functional, cell-based; settings: SK-HEP1, 96 h
CNE = test: Cytotoxicity against human CNE cells after 96 hrs by CCK-8 assay; assay type: functional, cell-based
SW480 = test: Cytotoxicity against human SW480 cells after 96 hrs by CCK-8 assay; assay type: functional, cell-based; settings: SW480, 96 h

T1 sequence (Q96GD4 whole entry): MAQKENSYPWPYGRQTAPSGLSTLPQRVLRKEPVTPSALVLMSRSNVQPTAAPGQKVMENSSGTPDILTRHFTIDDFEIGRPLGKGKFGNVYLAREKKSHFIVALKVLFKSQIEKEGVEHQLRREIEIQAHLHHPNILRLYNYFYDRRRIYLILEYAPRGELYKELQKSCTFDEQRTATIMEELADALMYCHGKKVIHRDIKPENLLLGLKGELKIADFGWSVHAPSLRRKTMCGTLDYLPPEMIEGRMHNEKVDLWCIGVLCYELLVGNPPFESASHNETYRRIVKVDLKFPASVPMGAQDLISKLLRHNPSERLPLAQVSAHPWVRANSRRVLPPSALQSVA

Structure (SMILES): O=C1/C(=C\c2ccc(O)c(O)c2)Oc2ccccc21
- IC50 (Aurora kinase B [1]): 0.735 µM
- IC50 (Aurora kinase A [2]): 1.34 µM
- IC50 [3]: 2.63 µM
- IC50 [4]: 3.7 µM
- IC50 [5]: 4.04 µM
- IC50 (Aurora kinase C): 4.75 µM
- IC50 [6]: 5.19 µM
- IC50 [7]: 5.96 µM
- IC50 [8]: 11.5 µM
- IC50 [9]: 19.5 µM
- IC50 [10]: 26.8 µM
- IC50 [11]: 37.4 µM
- IC50 [12]: 38.6 µM
- IC50 [13]: 78.8 µM
- IC50 [14]: 100 µM
- Kd (Aurora kinase A [15]): 12.9 µM
- Kd (Aurora kinase B [16]): 3.06 µM
- IC50 (SW-620): 3.9 µM
- IC50 (HepG2): 8.2 µM
- IC50 (HeLa): 13.4 µM
- IC50 [17]: 13.4 µM
- IC50 (MCF7): 16.2 µM
- IC50 [18]: 19.8 µM
- IC50 (SMMC-7721): 20.3 µM
- IC50 [19]: 20.4 µM
- IC50 [20]: 20.7 µM
- IC50 [21]: 21.1 µM
- IC50 [22]: 26.1 µM
- IC50 [23]: 28.7 µM
- IC50 (HT-29): 34.9 µM
- IC50 [24]: 36.5 µM
- IC50 [25]: 41.9 µM
- IC50 (CNE): 45.5 µM
- IC50 (SW480): 50 µM
